What was measured:
[1] = tested on: patients with advanced solid tumors; assay: Phase I dose escalation: MTD and DLT of oral once-daily apatinib; format: in vivo
Protocol: The phase I study was designed in accordance with the Chinese State Food and Drug Administration (SFDA) recommendations (Guidance for Industry, 2005). PK evaluations were to be performed for single-dosing and multiple-dosing of which the dose levels were determined after completion of dose-escalation. Three dose levels (low, intermediate and high dose) for single-dosing and one dose level (the recommended dose for phase II) for multiple-dosing study, between 8 to 12 participants for each dose levels, were required to meet the SFDA guidance. A cross-over design to evaluate the effects of food intake was incorporated into the single-dosing assessment, also meeting the SFDA requirement, but data will be presented separately.
Apatinib was provided by Advenchen Laboratories, LLC (Northridge, CA, USA) as capsule to be administered orally daily. A safe starting dose was determined in accordance with SFDA recommendations (Guidance for Industry 2005) following a previously established maximum-tolerated dose (MTD) in dogs for YN968D1 of above 30 mg/kg. Thus, in compliance with the SFDA's recommendation, the starting dose was determined to be 250 mg/day, corresponding to one-fourth of the MTD in dogs. (ClinicalTrials.gov number: NCT00633490).
Dose-escalation cohorts enrolled three to six patients. Intrapatient dose escalation was not allowed. […]

VEGFR-2 = conditions: no reference given; read-out: IC50, inhibitory effect on VEGFR-2; cited from earlier work

SMILES: N#CC1(c2ccc(NC(=O)c3cccnc3NCc3ccncc3)cc2)CCCC1 [apatinib]
- recommended (phase II) dose ([1]; human, in vivo, 4 weeks): 750 mg
- maximum tolerated dose (MTD) ([1]; oral, once daily, patients): 850 mg
- IC50 (VEGFR-2): 2.43 nM

Source: paper PMC2984425, “Safety and pharmacokinetics of novel selective vascular endothelial growth factor receptor-2 inhibitor YN968D1 in patients with advanced malignancies” (BMC Cancer, 2010)
